From patent US20240116985A1, “STAPLED PEPTIDES AND METHODS THEREOF” (priority 2020, published 2024) come the findings set out here.

Assay [1] concerns TCF/LEF luciferase Reporter in DLD1 cells. The assay is described as follows: TCF reporter assay (DLD1 TCF/LEF luciferase reporter, Bright-Glo). It counts as cell-based. To be noted: read-out: DLD1 4% Abs IC50; DLD1 reporter, 4%, absolute IC50. The method, boiled down: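 Readouts: Bright-Glo luciferase for reporter signal and CellTiter-Glo for cell viability, with absolute IC50 derived. The reporter clone came from lentiviral TCF/LEF-luciferase transduction of DLD1 cells, seeded 5000 cells/well in RPMI with 4% FBS and exposed overnight to serially diluted compounds.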
(In a reporter assay the amount or activity of a reporter protein is the signal.)

Assay [2] has as its target T1, beta-catenin/TCF4 engagement (Homo sapiens, UniProt P35222).
T1 construct: expressed in transfected cells; host or cells: HEK293
T1 sequence (P35222 1-781): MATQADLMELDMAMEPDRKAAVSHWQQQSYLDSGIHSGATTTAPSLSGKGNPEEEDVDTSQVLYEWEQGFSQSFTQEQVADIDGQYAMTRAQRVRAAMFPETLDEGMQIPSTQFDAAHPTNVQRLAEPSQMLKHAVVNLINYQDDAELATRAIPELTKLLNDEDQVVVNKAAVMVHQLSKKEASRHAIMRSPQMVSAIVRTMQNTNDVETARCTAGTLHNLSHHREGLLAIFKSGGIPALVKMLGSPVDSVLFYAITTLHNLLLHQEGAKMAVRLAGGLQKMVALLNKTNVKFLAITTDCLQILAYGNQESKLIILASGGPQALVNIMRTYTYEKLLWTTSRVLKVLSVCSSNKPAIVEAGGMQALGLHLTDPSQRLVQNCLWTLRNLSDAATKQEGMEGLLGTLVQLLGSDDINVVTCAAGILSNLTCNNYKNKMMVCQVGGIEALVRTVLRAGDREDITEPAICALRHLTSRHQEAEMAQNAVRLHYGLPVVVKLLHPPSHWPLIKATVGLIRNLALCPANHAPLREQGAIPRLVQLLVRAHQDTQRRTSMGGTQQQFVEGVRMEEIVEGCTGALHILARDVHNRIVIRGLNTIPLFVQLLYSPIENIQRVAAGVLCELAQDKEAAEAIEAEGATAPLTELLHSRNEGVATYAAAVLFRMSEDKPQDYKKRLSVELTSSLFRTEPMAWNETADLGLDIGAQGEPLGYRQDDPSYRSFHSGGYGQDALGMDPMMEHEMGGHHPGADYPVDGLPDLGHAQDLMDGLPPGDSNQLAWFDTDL
The assay can be described thus: Nano-BRET target engagement assay (B-cat-Halo & TCF4-Luc in HEK293 cells). Format: cell-based. To be noted: absolute IC50; read-out: NanoBRET Abs IC50. In general terms: In BRET a luciferase serves as donor, and the signal depends on an acceptor being close.

The target of assay [3] is T2, full-length beta-Catenin (Uniprot ID P35222) (Homo sapiens, UniProt P35222).
T2 construct: 10 nM full-length beta-Catenin (Uniprot ID P35222)
T2 sequence (P35222 1-781): T1 sequence (P35222 1-781)
The assay is described as follows: Fluorescence polarization IC50 (beta-catenin / 5FAM-TCF4 10-53 competition). It counts as binding. The note with it: fluorescence polarization; read-out: beta-Catenin FP IC50. For orientation: Fluorescence polarisation rises when a labelled molecule tumbles more slowly, as on binding a larger partner.

Turning to `CC(=O)N1CCC[C@]12CC=CCCCC1(CCCC=CCCCOC(=O)N3CC[C@@](C(=O)N[C@@H](Cc4ccccc4C(F)(F)F)C(=O)N[C@@H](Cc4csc5ccccc45)C(=O)N[C@@H](CCC(N)=O)C(=O)N[C@@H](CC(C)C)C(=O)N[C@H](C)C(N)=O)(C3)NC(=O)[C@H](CC(C)C)NC(=O)[C@H](Cc3ccccc3)NC(=O)[C@H](C)NC(=O)[C@H](C)NC(=O)[C@H](Cc3cccc(C(=O)O)c3)NC(=O)[C@H](CC(=O)O)NC1=O)NC(=O)[C@H](CC(C)(C)C)NC(=O)[C@H](CC(=O)O)NC2=O` (stereo partly drawn) [I-2395, Ac-PL3-Asp-Npg-B5-Asp-3COOHF-Ala-Ala-Phe-Leu-PyrS2-2F3MeF-BztA-Gln-Leu-dAla-NH2], the IC50 came out at 1200 nM in assay [1], 5500 nM in assay [2] and 28 nM in assay [3].

Take `CC(=O)N1CCC[C@]12CC=CCCCC1(CCCC=CCCCOC(=O)N3CC[C@@](C(=O)N[C@@H](Cc4ccccc4C(F)(F)F)C(=O)N[C@@H](Cc4csc5ccccc45)C(=O)N[C@@H](CCC(N)=O)C(=O)N[C@@H](CC(C)C)C(=O)N[C@H](CCC(N)=O)C(N)=O)(C3)NC(=O)[C@H](CC(C)C)NC(=O)[C@H](Cc3ccccc3)NC(=O)[C@H](C)NC(=O)[C@H](C)NC(=O)[C@H](Cc3cccc(C(=O)O)c3)NC(=O)[C@H](CC(=O)O)NC1=O)NC(=O)[C@H](CC(C)(C)C)NC(=O)[C@H](CC(=O)O)NC2=O` (stereo partly drawn) [I-2398, Ac-PL3-Asp-Npg-B5-Asp-3COOHF-Ala-Ala-Phe-Leu-PyrS2-2F3MeF-BztA-Gln-Leu-dGln-NH2]: the results for the IC50 in assay [1], in assay [2] and in assay [3] were 1300 nM, 3600 nM and 28 nM, respectively.

As to `CC(=O)N1CCC[C@]12CC=CCCCC1(CCCC=CCCCOC(=O)N3CC[C@@](C(=O)N[C@@H](Cc4ccccc4C(F)(F)F)C(=O)N[C@@H](Cc4csc5ccccc45)C(=O)N[C@@H](CCC(N)=O)C(=O)N[C@@H](C)C(=O)N[C@@H](C)C(N)=O)(C3)NC(=O)[C@H](CC(C)C)NC(=O)[C@H](Cc3ccccc3)NC(=O)[C@H](C)NC(=O)[C@H](C)NC(=O)[C@H](Cc3cccc(C(=O)O)c3)NC(=O)[C@H](CC(=O)O)NC1=O)NC(=O)[C@H](CC(C)(C)C)NC(=O)[C@H](CC(=O)O)NC2=O` (stereo partly drawn) [I-2399, Ac-PL3-Asp-Npg-B5-Asp-3COOHF-Ala-Ala-Phe-Leu-PyrS2-2F3MeF-BztA-Gln-Ala-Ala-NH2], the IC50 in assay [1] stood at 2200 nM; in assay [2], 2800 nM; in assay [3], 17 nM.

Turning to `CC(=O)N1CCC[C@]12CC=CCCCC1(CCCC=CCCCOC(=O)N3CC[C@@](C(=O)N[C@@H](Cc4ccccc4C(F)(F)F)C(=O)N[C@@H](Cc4csc5ccccc45)C(=O)N[C@@H](CCC(N)=O)C(=O)N[C@@H](Cc4ccccc4)C(=O)N[C@@H](C)C(N)=O)(C3)NC(=O)[C@H](CC(C)C)NC(=O)[C@H](Cc3ccccc3)NC(=O)[C@H](C)NC(=O)[C@H](C)NC(=O)[C@H](Cc3cccc(C(=O)O)c3)NC(=O)[C@H](CC(=O)O)NC1=O)NC(=O)[C@H](CC(C)(C)C)NC(=O)[C@H](CC(=O)O)NC2=O` (stereo partly drawn) [I-2400, Ac-PL3-Asp-Npg-B5-Asp-3COOHF-Ala-Ala-Phe-Leu-PyrS2-2F3MeF-BztA-Gln-Phe-Ala-NH2], the results for the IC50 in assay [1], in assay [2] and in assay [3] were 800 nM, 2500 nM and 142 nM, respectively.

As for `CC(=O)N1CCC[C@]12CC=CCCCC1(CCCC=CCCCOC(=O)N3CC[C@@](C(=O)N[C@@H](Cc4ccccc4C(F)(F)F)C(=O)N[C@@H](Cc4csc5ccccc45)C(=O)N[C@@H](CCC(N)=O)C(=O)N[C@H](C(=O)N[C@@H](C)C(N)=O)C(C)C)(C3)NC(=O)[C@H](CC(C)C)NC(=O)[C@H](Cc3ccccc3)NC(=O)[C@H](C)NC(=O)[C@H](C)NC(=O)[C@H](Cc3cccc(C(=O)O)c3)NC(=O)[C@H](CC(=O)O)NC1=O)NC(=O)[C@H](CC(C)(C)C)NC(=O)[C@H](CC(=O)O)NC2=O` (stereo partly drawn) [I-2401, Ac-PL3-Asp-Npg-B5-Asp-3COOHF-Ala-Ala-Phe-Leu-PyrS2-2F3MeF-BztA-Gln-Val-Ala-NH2], the results for the IC50 in assay [1], in assay [2] and in assay [3] were 800 nM, 4400 nM and 37 nM, respectively.

On to `CC(=O)N1CCC[C@]12CC=CCCCC1(CCCC=CCCCOC(=O)N3CC[C@@](C(=O)N[C@@H](Cc4ccsc4)C(=O)N[C@@H](Cc4csc5ccccc45)C(=O)N[C@H](C(N)=O)[C@@H](C)O)(C3)NC(=O)[C@H](CC(N)=O)NC(=O)[C@H](Cc3ccccc3)NC(=O)[C@H](C)NC(=O)C(C)(C)NC(=O)[C@H]([C@@H](C)O)NC(=O)[C@H](CC(N)=O)NC1=O)NC(=O)[C@H](CC(C)(C)C)NC(=O)[C@H](CC(=O)O)NC2=O` (stereo partly drawn) [I-2416, Ac-PL3-Asp-Npg-B5-Asn-Thr-Aib-Ala-Phe-Asn-PyrS2-3Thi-BztA-Thr-NH2], for which the figures for the IC50 in assay [1], in assay [2] and in assay [3] were above 20000 nM, above 20000 nM and 133 nM, respectively.

In the case of `CC(=O)N1CCC[C@]12CC=CCCCC1(CCCC=CCCCOC(=O)N3CC[C@@](C(=O)N[C@@H](Cc4ccccc4)C(=O)N[C@@H](Cc4csc5ccccc45)C(=O)N[C@@H](CC(=O)N4CCOCC4)C(N)=O)(C3)NC(=O)[C@H](CC(C)C)NC(=O)[C@H](Cc3ccccc3)NC(=O)[C@H](C)NC(=O)[C@H](CCCCNC(C)C)NC(=O)[C@H](CCC(N)=O)NC(=O)[C@H](CC(=O)O)NC1=O)NC(=O)[C@H](CC1CCCCC1)NC(=O)[C@H](CC(N)=O)NC2=O` (stereo partly drawn) [I-2426, Ac-PL3-Asn-Cha-B5-Asp-Gln-iPrLys-Ala-Phe-Leu-PyrS2-Phe-BztA-MorphAsn-NH2], the IC50 is above 20000 nM in assay [1], above 20000 nM in assay [2] and 46 nM in assay [3].

`CC(=O)N1CCC[C@]12CC=CCCCC1(CCCC=CCCCOC(=O)N3CC[C@@](C(=O)N[C@@H](Cc4ccsc4)C(=O)N[C@@H](Cc4csc5ccccc45)C(=O)N[C@@H](CCC(N)=O)C(N)=O)(C3)NC(=O)[C@H](CC(C)C)NC(=O)[C@H](Cc3ccccc3)NC(=O)[C@H](C)NC(=O)[C@H](C)NC(=O)[C@H](Cn3cc(C4(C(=O)O)CC4)nn3)NC(=O)[C@H](CC(=O)O)NC1=O)NC(=O)[C@H](CC(C)(C)C)NC(=O)[C@H](CC(=O)O)NC2=O` (stereo partly drawn) [I-2445, Ac-PL3-Asp-Npg-B5-Asp-[CCpCO2H]TriAzDap-Ala-Ala-Phe-Leu-PyrS2-3Thi-BztA-Gln-NH2]: the IC50 is 9500 nM in assay [1], 17100 nM in assay [2] and 5 nM in assay [3].

Take `CC(=O)N1CCC[C@]12CC=CCCCC1(CCCC=CCCCOC(=O)N3CC[C@@](C(=O)N[C@@H](Cc4ccsc4)C(=O)N[C@@H](Cc4csc5ccccc45)C(=O)N[C@@H](CCC(=O)N(C)C)C(=O)N[C@@H](C)C(N)=O)(C3)NC(=O)[C@H](CC(C)C)NC(=O)[C@H](Cc3ccccc3)NC(=O)[C@H](C)NC(=O)[C@H](C)NC(=O)[C@H](CN(CC(=O)O)CC(F)(F)F)NC(=O)[C@H](CC(=O)O)NC1=O)NC(=O)[C@H](CC(C)(C)C)NC(=O)[C@H](CC(=O)O)NC2=O` (stereo partly drawn) [I-2467, Ac-PL3-Asp-Npg-B5-Asp-TfeGA-Ala-Ala-Phe-Leu-PyrS2-3Thi-BztA-Me2Gln-Ala-NH2]: the 50% inhibitory concentration (IC50) in assay [1] is 1400 nM; in assay [2] it was 2500 nM; in assay [3] it was 10 nM.

Regarding `CC(=O)N1CCC[C@]12CC=CCCCC1(CCCC=CCCCOC(=O)N3CC[C@@](C(=O)N[C@@H](Cc4ccccc4C(F)(F)F)C(=O)N[C@@H](Cc4csc5ccccc45)C(=O)N[C@@H](C)C(N)=O)(C3)NC(=O)[C@H](CC(C)C)NC(=O)[C@H](Cc3ccccc3)NC(=O)[C@H](C)NC(=O)[C@H](CCC(N)=O)NC(=O)[C@H](Cn3cc(CC4(C(=O)O)CCCCC4)nn3)NC(=O)[C@H](CC(=O)O)NC1=O)NC(=O)[C@H](CC(C)(C)C)NC(=O)[C@H](CC(=O)O)NC2=O` (stereo partly drawn) [I-2520, Ac-PL3-Asp-Npg-B5-Asp-[CH2CChCO2H]TriAzDap-Gln-Ala-Phe-Leu-PyrS2-2F3MeF-BztA-Ala-NH2], the IC50 in assay [1] amounted to 5700 nM; in assay [2], 5900 nM; in assay [3], 27 nM.

As to `CC(=O)N1CCC[C@]12CC=CCCCC1(CCCC=CCCCOC(=O)N3CC[C@@](C(=O)N[C@@H](Cc4ccccc4C(F)(F)F)C(=O)N[C@@H](Cc4csc5ccccc45)C(=O)N[C@@H](CO)C(N)=O)(C3)NC(=O)[C@H](CC(C)C)NC(=O)[C@H](Cc3ccccc3)NC(=O)[C@H](C)NC(=O)[C@H](C)NC(=O)[C@H](Cn3cc(CC4(C(=O)O)CCCCC4)nn3)NC(=O)[C@H](CC(=O)O)NC1=O)NC(=O)[C@H](CC(C)(C)C)NC(=O)[C@H](CC(=O)O)NC2=O` (stereo partly drawn) [I-2521, Ac-PL3-Asp-Npg-B5-Asp-[CH2CChCO2H]TriAzDap-Ala-Ala-Phe-Leu-PyrS2-2F3MeF-BztA-Ser-NH2], the IC50 in assay [1] was 3000 nM; in assay [2], 5600 nM; in assay [3], 38 nM.

Usually IC50 stands for the midpoint of a concentration-inhibition curve.
